What was measured:
[1] = plasma pharmacokinetics (elimination half-life, Cmax, AUC versus dose); details: dose range of 5 mg-500 mg
Source text: (§1) “PK” refers to the pharmacokinetic profile. Cmax is defined as the highest plasma drug concentration estimated during an experiment (ng/ml). Tmax is defined as the time when Cmax is estimated (min). AUC0-∞ is the total area under the plasma drug concentration-time curve, from drug administration until the drug is eliminated (ng·hr/ml or g*hr/ml). The area under the curve is governed by clearance. Clearance is defined as the volume of blood or plasma that is totally cleared of its content of drug per unit time (ml/min).

in vivo = details: plasma
Source text: as §1

SMILES: N[C@H]1C[C@@H](C(=O)O)CC1=C(F)F
- AUCs dose proportionality [1]: greater than proportional increase
- Cmax dose proportionality [1]: increases in a dose proportional manner
- half-life (in vivo): 4 to 6 h
